Data set [1] in a line: Acute toxicity on rats (i.v.). The settings on record: rat, in vivo, iv. An excerpt: (§1) Acute toxicity, analgesic and platelet aggregation inhibiting activity of "CH-105" was compared with the same activities of RIMAZOLIUM. RIMAZOLIUM is a commercial product, which is a quaternary salt chemically, but exerts its activity as a tautomeric enamine [Arzneimittel Forschung 21, 717-719 and 719-727 (1971)].

Data set [2] relates to rats. Description: Analgesic activity on rats, hot plate, per os. It is filed as in vivo. The settings on record: Rattus norvegicus, po.
Source text: as §1

Data set [3] deals with mice. Briefly: Analgesic activity on "Writing" test, on mice. The data set is classed as in vivo. To be noted: Mus musculus.
Source text: as §1

Data set [4] concerns platelet aggregation. Briefly: Platelet aggregation inhibiting activity, comparison of CH-105 and Rimazolium. The settings on record: same conditions for CH-105 and Rimazolium.
Source text: as §1

For data set [5], the system named is collagen induced thrombocyte aggregation. Briefly: Inhibition of collagen induced thrombocyte aggregation (in vitro). It is filed as cell-based. From the text:
In Table 6 the inhibition of collagen induced thrombocyte aggregation under in vitro conditions is shown.

For data set [6], the system named is rat paw oedema. Briefly: Antiphlogistic activity, rat paw oedema method (Domenju). It is filed as in vivo. As for the experimental part:
The antiphlogistic activity was tested by the rat paw oedema method (Domenju, R: Ann. Univ. Saraviensis 1,317, 1953). The compound were compared with the currently used therapeutic agents Phenylbutazone, aspirin, Indomethacin, Mebron and Amidazophenum.

In data set [7] the test system is PGE1. Description: Oedema inhibition, inflammation caused by prostaglandin E1. It is filed as in vivo. From the text:
(§2) Thus, it is appropriate to test the effectiveness of a representative compound of the invention in the inflammation response caused by prostaglandin E1 and E2, particularly from the point of view of the vessel wall permeability, which plays an important role in the inflammation.

Data set [8] concerns PGE2. Description: Oedema inhibition, inflammation caused by prostaglandin E2. The data set is classed as in vivo.
Source text: as §2

The test system of data set [9] is PGE1. Description: Vessel wall permeability inhibition, prostaglandin E1. It is filed as in vivo.
Source text: as §2

In data set [10] the test system is PGE2. Description: Vessel wall permeability inhibition, prostaglandin E2. It is filed as in vivo.
Source text: as §2

Data set [11] can be described thus: Antiphlogistic activity, method of Northove. It is filed as in vivo. To be noted: 100 mg/kg. From the text:
Favorable antiphlogistic properties were found in tests carried out by the method of Northove.

In data set [12] the test system is rats. Description: Chronic toxicity test, ulcerogenicity in rats. The data set is classed as in vivo. The settings on record: one-month old rats, 50 mg/kg, chronic toxicity tests.
A short description of data set [13]: Pharmacological and toxicological tests (summary).
A short description of data set [14]: in vivo. To be noted: rat, po.
Data set [15] is described as follows: in vivo. The settings on record: mouse, po.

Where two headings read alike, the source gives them in different places.

The results in this text go back to patent US4495189A, “Condensed pyrimidines” (priority 1975, dated 1985).

As to `CCOC(=O)c1c[n+](C)c2n(c1=O)C(C)CCC2` (centres unmarked) [Rimazolium, 1,6-dimethyl-3-carbethoxy-4-oxo-6,7,8,9-tetrahydrohomopyrimidazol-methylsulfate], in data set [1], the LD50 – broadly, the dose at which mortality reaches 50% – came out at 610 µmol/kg. Further, the values for the ED50 in data set [2] and in data set [3] were 620 µmol/kg and 1050 µmol/kg, respectively. The “platelet aggregation inhibiting activity” value in data set [4] is “practically ineffective”.

As for `CC1CCC=C2N(C)C=C(C(=O)NCCC(c3ccccc3)c3ccccc3)C(=O)N21` (centres unmarked) [Example 9, 1,6-dimethyl-3-[N-(3,3-diphenyl-propyl)-carbamoyl]-4-oxo-1,6,7,8-tetrahydro-4H-pyrido(1,2a)pyrimidine], the “Inhibition of collagen induced thrombocyte aggregation in %” value (“Inhibition … in %” below) came to 70% in data set [5] (1 × 10^-3 mole) and 60% in data set [5] (1 × 10^-4 mole).

As for `CC1CCC=C2N(C)C=C(C(=O)NC(C)(C)C)C(=O)N21` (centres unmarked) [Example 5, 1,6-dimethyl-3-(N-tert-butyl-carbamoyl)-4-oxo-1,6,7,8-tetrahydro-4H-pyrido(1,2a)pyrimidine], the “Oedema inhibiting effect in %, 2 hours after the administration of the substance” value (“Oedema inhibiting effect in %, 2 hours” below) in data set [6] (125 mg/kg) is listed as 50%. The “Inhibition … in %” value in data set [5] (1 × 10^-3 mole) is recorded as 99%; in data set [5] (1 × 10^-4 mole), 85%.

Consider `CNC(=O)C1=CN(C)C2=CCCC(C)N2C1=O` (centres unmarked) [Example 7, 1,6-dimethyl-3-(N-methyl-carbamoyl)-4-oxo-1,6,7,8-tetrahydro-4H-pyrido(1,2a)pyrimidine], for which the “Oedema inhibiting effect in %, 2 hours” value in data set [6] (500 mg/kg) is 60%. The entries for the “Inhibition … in %” value in data set [5] (1 × 10^-3 mole) and in data set [5] (1 × 10^-4 mole) were 100% and 95%, respectively.

Regarding `CC1CCC=C2N(C)C=C(C(N)=O)C(=O)N21` (centres unmarked) [CH-105, 1,6-dimethyl-3-carbamoyl-4-oxo-1,6,7,8-tetrahydro-4H-pyrido[1,2-a]pyrimidine], the “Oedema inhibiting effect in %, 1 hour after the administration of the substance” value (shortened to “Oedema inhibiting effect in %, 1 hour”) turned out to be 25% in data set [6] (100 mg/kg) and 45% in data set [6] (300 mg/kg). For the same compound, the “Oedema inhibiting effect in %, 2 hours” value came out at 34% in data set [6] (100 mg/kg) and 52% in data set [6] (300 mg/kg). Moreover, in data set [6] (300 mg/kg), the “Oedema inhibiting effect in %, 24 hours after the administration of the substance” value (“Oedema inhibiting effect in %, 24 hours” below) was determined as 8%. Further, the “Oedema inhibition %, PGE1” value in [7] (200 mg/kg) is recorded as 30%; in data set [7] (500 mg/kg) it was 42%. In [7] (data of Table 2, PGE1 and PGE2, compared with aspirin), the “activity as an oedema inhibitor or a vessel wall permeability reducing agent” value was “activity of the same range as the known active prostaglandinantagonist, aspirin”. Also, the “Oedema inhibition %, PGE2” value in [8] (200 mg/kg) is given as 31%; in [8] (500 mg/kg), 45%. The “Vessel wall permeability inhibition %, PGE1” value in data set [9] (200 mg/kg) and in data set [9] (500 mg/kg) was 40% each time. In addition, the “Vessel wall permeability inhibition %, PGE2” value was determined as 35% in data set [10] (200 mg/kg) and 50% in [10] (500 mg/kg). In addition, in data set [11], the “Antiphlogistic activity (%), 1 hour” value turned out to be 40%. Further, in [11], the “Antiphlogistic activity (%), 2 hours” value amounted to 55%. For the same compound, the “Antiphlogistic activity (%), 24 hours” value in data set [11] came to 30%. The ulcerogenicity entry in [12] is “not ulcerogenic”. Moreover, the entries for the “Inhibition … in %” value in data set [5] (1 × 10^-3 mole) and in data set [5] (1 × 10^-4 mole) were 100% and 90%, respectively. Besides, the median lethal dose (LD50) worked out at 960 µmol/kg in [1], 750 mg/kg in data set [14] and 975 mg/kg in data set [15]. Besides, the 50% effect level in data set [2] (ED50) was put at a dose of 410 µmol/kg; the 50% effective dose (ED50) (in general, the midpoint of the dose-response relation) in data set [3] stood at 210 µmol/kg; the median effective dose (ED50) (modified writhing test) amounted to 70 mg/kg. In addition, in [4], the “platelet aggregation inhibiting activity” value is given as “excellent platelet aggregation inhibiting activity”. Moreover, in [13], the “antiphlogistic activity, analgesic activity and therapeutic index (in words)” value was “significant antiphlogistic activity, analgesic activity and have a favorable therapeutic index”. In addition, for the setting “modified writhing test”, the “Therapeutic Index” value is 14.

As to `CCCCC1C(=O)N(c2ccccc2)N(c2ccccc2)C1=O` [Phenylbutazone], the “Oedema inhibiting effect in %, 1 hour” value worked out at 2% in [6] (100 mg/kg) and 11% in data set [6] (200 mg/kg). Moreover, the “Oedema inhibiting effect in %, 2 hours” value was determined as 2% in data set [6] (100 mg/kg) and 10% in [6] (200 mg/kg). For the same compound, in data set [6] (200 mg/kg), the “Oedema inhibiting effect in %, 24 hours” value was determined as 3%. In addition, the “Oedema inhibition %, PGE1” value is 35% in [7] (100 mg/kg) and 15% in data set [7] (200 mg/kg). The figures for the “Oedema inhibition %, PGE2” value in data set [8] (100 mg/kg) and in data set [8] (200 mg/kg) were 10% and 28%, respectively. Further, the “Vessel wall permeability inhibition %, PGE1” value was found to be 10% in [9] (100 mg/kg) and 20% in [9] (200 mg/kg). Moreover, the figures for the “Vessel wall permeability inhibition %, PGE2” value in [10] (100 mg/kg) and in data set [10] (200 mg/kg) were 5% and 20%, respectively. Further, the “Antiphlogistic activity (%), 1 hour” value in data set [11] was determined as 13%. Moreover, in data set [11], the “Antiphlogistic activity (%), 2 hours” value came out at 20%. Also, the “Antiphlogistic activity (%), 24 hours” value in data set [11] is 0%. Moreover, the ED50 (modified writhing test) was 63 mg/kg.

For the compound `CC(=O)Oc1ccccc1C(=O)O` [Aspirin], the “Oedema inhibition %, PGE1” value in data set [7] (200 mg/kg) is recorded as 41%; in [7] (500 mg/kg) it was 45%. Also, the “Oedema inhibition %, PGE2” value in [8] (200 mg/kg) amounted to 20%; in data set [8] (500 mg/kg), 54%. The “Vessel wall permeability inhibition %, PGE1” value in data set [9] (200 mg/kg) came out at 30%; in [9] (500 mg/kg), 42%. The results for the “Vessel wall permeability inhibition %, PGE2” value in data set [10] (200 mg/kg) and in [10] (500 mg/kg) were 25% and 50%, respectively. The 50% lethal dose (LD50) in [14] came out at 1600 mg/kg; in [15] it was 1100 mg/kg.

Take `CC1CCC=C2N(C)C=C(C(=O)Nc3ccccc3)C(=O)N21` (centres unmarked) [Example 6, 1,6-dimethyl-3-(N-phenylcarbamoyl)-4-oxo-1,6,7,8-tetrahydro-4H-pyrido(1,2a)pyrimidine]: the “Oedema inhibiting effect in %, 2 hours” value in [6] (500 mg/kg) was 53%. Also, the entries for the “Inhibition … in %” value in [5] (1 × 10^-3 mole) and in data set [5] (1 × 10^-4 mole) were 56% and 29%, respectively.

For the compound `COc1cc(C)nc(-n2nc(C)cc2OC)n1` [Mebron], in data set [6] (100 mg/kg), the “Oedema inhibiting effect in %, 1 hour” value is given as 8% and the “Oedema inhibiting effect in %, 2 hours” value amounted to 22%. Further, in data set [6] (300 mg/kg), the “Oedema inhibiting effect in %, 1 hour” value was 25%; the “Oedema inhibiting effect in %, 2 hours” value was 25%; the “Oedema inhibiting effect in %, 24 hours” value was determined as 3%. Further, in [11], the “Antiphlogistic activity (%), 1 hour” value was 23%; the “Antiphlogistic activity (%), 2 hours” value was determined as 23%; the “Antiphlogistic activity (%), 24 hours” value is reported as 0%. Also, the “Therapeutic Index” value (in vivo) came to 4.3. Where the note is “modified writhing test”, this compound displayed an ED50 of 380 mg/kg.

For the compound `CC1CCC=C2N(C)C=C(C(=O)NCCc3ccccc3)C(=O)N21` (centres unmarked) [Example 11, 1,6-dimethyl-3-[N-(2-phenyl-ethyl)-carbamoyl]-4-oxo-1,6,7,8-tetrahydro-4H-pyrido(1,2a)pyrimidine], in [6] (125 mg/kg), the “Oedema inhibiting effect in %, 2 hours” value stood at 38%. Besides, the “Inhibition … in %” value in data set [5] (1 × 10^-3 mole) is given as 96%; in [5] (1 × 10^-4 mole), 92%.

With `COc1ccc2c(c1)c(CC(=O)O)c(C)n2C(=O)c1ccc(Cl)cc1` [Indomethacin], for the setting “modified writhing test”, the ED50 stood at 2.4 mg/kg and the “Therapeutic Index” value is 12.
